The values that follow come from patent publication US20200316096A1, “COMBINATION OF DIET AND DRUG THERAPY FOR TREATING CANCER” (Trustees of Boston College, priority 2019, published 2020).

The test system of the test is Iba-1. Description: Iba-1 expression in VM-M3 brain tumour tissue (immunohistochemistry, western blot). The test is classed as in vivo, mouse (VM/Dk). To be noted: DON treated brain tumour tissue; immunohistochemistry and western blot. As for the experimental part:
FIGS. 6A-6C. Restricted Ketogenic diet with DON reduces the Iba-1 expression in the VM-M3 brain tumour tissue. Immunohistochemistry (IHC) of Iba-1 was performed in formalin fixed brain tissues as described in Methods. […] Western blot analysis of Iba-1 protein expression in the tumours indicates a decrease in the expression of Iba-1 in the DON treated tumours (n=3 mouse tumour brain tissue) in comparison to SD-UR (n=3 mouse tumour brain tissue). A decrease in expression was also seen for KD-R mice (n=2 mouse tumour brain tissue). Normal brain (NB) was used as a negative control tissue, FIGS. 6B and 6C.
Iba-1 protein expression was analyzed in the VM-M3 brain tumour tissue by immunohistochemistry and western blot. Iba-1 was heavily expressed in VM-M3 tumour and normal microglia/macrophages, as we described previously^37. The KD-R reduced the expression of Iba-1 as shown in both immunohistochemistry and western blot (FIGS. 6A and 6B). […]
Approximately 100 μg of total protein from each tissue sample was denatured with SDS-PAGE sample buffer [63 mmol/L Tris-HCl (pH 6.8), 10% glycerol, 2% SDS, 0.0025% bromphenol blue, and 5% 2-mercaptoethanol] and was resolved by SDS-PAGE on 4% to 12% Bis-Tris gels (Invitrogen). […] Each membrane was stripped and reprobed for β-actin as an internal loading control and the ratio of the Iba-1 to β-actin was analyzed by scanning densitometry (FluorChem 8900 Software).

Turning to `[N-]=[N+]=CC(=O)CC[C@H](N)C(=O)O` [DON, 6-diazo-5-oxo-L-norleucine], the Iba-1 expression entry is “significant reduction”.
